US10246455B2, “Histone deacetylase inhibitors” (Taipei Medical University, priority 2014, dated 2019)

Experiments:
[1] = tested on: KB cell line (oral carcinoma); assay: IC50 in human cancer cell lines (inhibiting HDAC): KB; settings: Homo sapiens, read-out: IC50, inhibiting HDAC in human cancer cell lines, KB, oral carcinoma
[2] = tested on: PC3 prostate cancer cells; assay: Three dimensional cell growth inhibitory assay (cellular spheres, MTT, microscopy): PC3; format: cell-based, human; settings: Homo sapiens
Procedure: For the three dimensional assay, cells in the logarithmic phase were cultured in 50% Matrigel-containing complete medium in 96-well plates at 37° C. with 5% CO2 for five days incubation, and treated with appropriate concentrations of test compounds for three generative times. Images of spheroids were taken under a microscope, and spheroid cell survival was determined by MTT assays.
The cells (in the 2D culture) and the cellular spheres (in the 3D culture) were treated with test compounds for 72 hours, and then subjected to the MTT colorimetric assay. Each value represents the mean of three independent experiments. Cellular spheres formed in semi-solid and drug effect on cellular spheres were examined using phase-contrast light microscopy.
More specifically, cellular spheres formed in semi-solid and drug effect on cellular spheres were examined using phase-contrast light microscopy. 3D structures of cells were analyzed using 4× magnification, 10× magnification, and 20× magnification.

[3] = tested on: PC3 prostate cancer cells; assay: Two dimensional cell growth inhibitory assay (MTT): PC3; settings: Homo sapiens
Procedure: For the two dimensional assay, cancel cells in the logarithmic phase were cultured in complete medium in 96-well plates at 37° C. with 5% CO2 for overnight incubation, and treated with various concentrations of test compounds for three generative times. Cells were then incubated with a serum free medium containing 3-(4,5-dimethylthiazol-2-yl)-2,5-diphenyltetrazolium bromide (MTT) at a final concentration of 0.5 mg/mM for four hours. MTT was converted to formazan by metabolically viable cells. Formazan was then solublized in 50% DMF solution containing 20% SDS at 37° C. overnight. Absorbance was measured at 570 nm using a spectramax M5 microplate reader (Molecular Devices, UK).

[4] = tested on: A549 (non-small-cell lung carcinoma); assay: IC50 in human cancer cell lines (inhibiting HDAC): A549; settings: read-out: IC50, inhibiting HDAC in human cancer cell lines; A549, non-small-cell lung carcinoma
KB-VIN10 (KB resistant) = assay: IC50 against human cancer cell lines: KB-VIN10; settings: read-out: IC50 ± SD against human cancer cell lines; KB-VIN10, KB resistant
C6 glioma cell line = assay: Cell death in C6 glioma in vitro (LDH assay); format: cell-based; settings: rat C6 glioma, 30 uM, after 3 days
Procedure: Cell death was analyzed by a lactate dehydrogenase (LDH) assay. The culture medium was centrifuged after the experiment and the activity of LDH released into culture media was detected with a LDH cytotoxicity detection kit (Roche). The percentage of cytotoxicity was determined by the equation: [(Experimental group−Control group)/(Triton-100-treated group (100% maximal death)−Control group)]×100%.

[5] = Table 6, cell line not given, read-out: IC50 value 3D Culture
[6] = read-out: IC50 value 2D Culture

| melting point [°C] | IC50 [1] [nM] | SMILES | also measured |
| --- | --- | --- | --- |
| 128 to 129 |  | O=C(/C=C/c1cccc(S(=O)(=O)n2ccc3ccncc32)c1)NO [Compound 6, (E)-3-(3-(1H-Pyrrolo[2,3-c]pyridin-1-ylsulfonyl)phenyl)-N-hydroxyacrylamide] |  |
| 188 to 191 | < 6000 | O=C(/C=C/c1cccc(S(=O)(=O)n2ccc3ccccc32)c1)NO [Compound 1, (E)-3-(3-(1H-indol-1-ylsulfonyl)phenyl)-N-hydroxyacrylamide] |  |
|  | < 6000 | O=C(/C=C/c1cccc(S(=O)(=O)n2ccc3cncnc32)c1)NO [Compound 4, (E)-3-(3-((7H-Pyrrolo[2,3-d]pyrimidin-7-yl)sulfonyl)phenyl)-N-hydroxyacrylamide] |  |
|  | < 6000 | COc1ccc(S(=O)(=O)N2CCc3cc(C(=O)NO)cnc32)cc1 [Compound 10a, N-hydroxy-1-(4-methoxyphenylsulfonyl)-2,3-dihydro-1H-pyrrolo[2,3-b]pyridine-5-carboxamide] |  |
| 188 to 190 | < 6000 | O=C(/C=C/c1ccc(S(=O)(=O)n2ccc3ncccc32)cc1)NO [Compound 10, (E)-3-(4-(1H-Pyrrolo[3,2-b]pyridin-1-ylsulfonyl)phenyl)-N-hydroxyacrylamide] |  |
|  | < 6000 | COc1ccc(S(=O)(=O)N2CCc3cc(/C=C/C(=O)Nc4ccccc4N)cnc32)cc1 [Compound 6a, (E)-N-(2-aminophenyl)-3-(1-(4-methoxyphenylsulfonyl)-2,3-dihydro-1H-pyrrolo[2,3-b]pyridin-5-yl)acrylamide] |  |
| 185 to 188 | < 6000 | Nc1ccccc1NC(=O)c1ccc(Cn2ncc3ccccc32)cc1 [Compound 16, 4-((1H-Indazol-1-yl)methyl)-N-(2-aminophenyl)benzamide] |  |
| 158 to 159 | < 6000 | Nc1ccccc1NC(=O)c1ccc(Cn2ccc3cccnc32)cc1 [Compound 20, 4-((1H-Pyrrolo[2,3-b]pyridin-1-yl)methyl)-N-(2-aminophenyl)benzamide] |  |
|  | < 6000 | Nc1ccccc1NC(=O)c1ccc(CN2CCc3ccccc32)cc1 [Compound 15, N-(2-Aminophenyl)-4-(indolin-1-ylmethyl)benzamide] |  |
| 167 to 169 | < 6000 | O=C(/C=C/c1ccc(S(=O)(=O)n2ccc3ccncc32)cc1)NO [Compound 11, (E)-3-(4-(1H-Pyrrolo[2,3-c]pyridin-1-ylsulfonyl)phenyl)-N-hydroxyacrylamide] |  |
| 169 to 170 |  | O=C(/C=C/c1ccc(S(=O)(=O)n2ccc3cccnc32)cc1)NO [Compound 12, (E)-3-(4-(1H-Pyrrolo[2,3-b]pyridin-1-ylsulfonyl)phenyl)-N-hydroxyacrylamide] |  |
|  |  | COc1cccc2c1C(=O)c1c(O)c3c(c(O)c1C2=O)C[C@@](O)(C(=O)CO)C[C@@H]3O[C@H]1C[C@H](N)[C@H](O)[C@H](C)O1 [Adriamycin] | IC50 [2, 5]: 720 ± 40 nM; IC50 ([2]; read-out: 3D Culture): 720 ± 40 nM; IC50 ([3]; read-out: 2D Culture): 70 ± 30 nM; IC50 [3, 6]: 70 ± 30 nM |
|  | < 6000 | O=C(/C=C/c1ccc(S(=O)(=O)n2ncc3ccccc32)cc1)NO [Compound 9, (E)-3-(4-(1H-Indazol-1-ylsulfonyl)phenyl)-N-hydroxyacrylamide] |  |
| 228 to 230 | < 6000 | O=C(/C=C/c1cccc(S(=O)(=O)N2CCc3cccnc32)c1)NO [Compound 8, (E)-3-(3-(2,3-Dihydro-1H-pyrrolo[2,3-b]pyridin-1-ylsulfonyl)phenyl)-N-hydroxyacrylamide] |  |
|  | < 6000 | O=C(NO)c1ccc(Cn2ccc3cccnc32)cc1 [Compound 23, N-Hydroxy-4-pyrrolo[2,3-b]pyridin-1-ylmethyl-benzamide] |  |
| 165 to 167 | < 6000 | Nc1ccccc1NC(=O)c1ccc(Cn2ccc3cnccc32)cc1 [Compound 18, 4-((1H-Pyrrolo[3,2-c]pyridin-1-yl)methyl)-N-(2-aminophenyl)benzamide] |  |
|  |  | CC(=O)O[C@H]1C(=O)[C@@]2(C)[C@H]([C@H](OC(=O)c3ccccc3)[C@]3(O)C[C@H](OC(=O)[C@H](O)[C@@H](NC(=O)c4ccccc4)c4ccccc4)C(C)=C1C3(C)C)[C@]1(OC(C)=O)CO[C@@H]1C[C@@H]2O [Paclitaxel] | IC50 [2, 5]: 5850 ± 70 nM; IC50 ([2]; read-out: 3D Culture): 5850 nM; IC50 ([3]; read-out: 2D Culture): 0.2 ± 0.1 nM; IC50 [3, 6]: 0.2 ± 0.1 nM |
|  |  | O=C(CCCCCCC(=O)Nc1ccccc1)NO [SAHA, reference compound] | IC50 [4]: 1540 ± 80 nM; IC50 (KB-VIN10 (KB resistant)): 1850 ± 526 nM; induction of cell death (LDH) (C6 glioma cell line): about 70% |
| 154 to 155 | < 6000 | Nc1ccccc1NC(=O)c1ccc(Cn2ccc3ccncc32)cc1 [Compound 19, 4-((1H-Pyrrolo[2,3-c]pyridin-1-yl)methyl)-N-(2-aminophenyl)-benzamide] |  |
| 105 to 107 | < 6000 | Nc1ccccc1NC(=O)c1ccc(CN2CCc3cccnc32)cc1 [Compound 21, N-(2-Aminophenyl)-4-((2,3-dihydro-1H-pyrrolo[2,3-b]pyridin-1-yl)methyl)benzamide] |  |
| 220 to 223 | < 6000 | O=C(/C=C/c1ccc(S(=O)(=O)N2CCc3cccnc32)cc1)NO [Compound 13, (E)-3-(4-(2,3-Dihydro-1H-pyrrolo[2,3-b]pyridin-1-ylsulfonyl)phenyl)-N-hydroxyacrylamide] |  |
| 207 to 209 | < 6000 | O=C(/C=C/c1cccc(S(=O)(=O)N2CCc3ccccc32)c1)NO [Compound 2, (E)-N-hydroxy-3-(3-(indolin-1-ylsulfonyl)phenyl)acrylamide] |  |
| 148 to 150 |  | O=C(/C=C/c1cccc(S(=O)(=O)n2ccc3ncccc32)c1)NO [Compound 5, (E)-3-(3-(1H-Pyrrolo[3,2-b]pyridin-1-ylsulfonyl)phenyl)-N-hydroxyacrylamide] |  |
|  | < 6000 | Nc1ccccc1NC(=O)c1ccc(Cn2ccc3ccccc32)cc1 [Compound 14, 4-((1H-Indol-1-yl)methyl)-N-(2-aminophenyl)benzamide] |  |
| 116 to 118 | < 6000 | Nc1ccccc1NC(=O)c1ccc(Cn2ccc3ncccc32)cc1 [Compound 17, 4-((1H-Pyrrolo[3,2-b]pyridin-1-yl)methyl)-N-(2-aminophenyl)-benzamide] |  |
|  |  | CC[C@]1(O)C[C@H]2CN(CCc3c([nH]c4ccccc34)[C@@](C(=O)OC)(c3cc4c(cc3OC)N(C=O)[C@H]3[C@@](O)(C(=O)OC)[C@H](OC(C)=O)[C@]5(CC)C=CCN6CC[C@]43[C@@H]65)C2)C1 [Vincristine] | IC50 [2, 5]: 2.5 ± 0.71 nM; IC50 ([2]; read-out: 3D Culture): 2.5 ± 0.71 nM; IC50 ([3]; read-out: 2D Culture): 0.75 ± 0.64 nM; IC50 [3, 6]: 0.75 ± 0.64 nM |
